Test results from publication PMC9513230, “Inhibition of Plasmodium falciparum Hsp70-Hop partnership by 2-phenylthynesulfonamide” (Frontiers in Molecular Biosciences, 2022).

Columns and labels:
PfHsp70-1NBD = PfHsp70-1NBD (Plasmodium falciparum, UniProt Q8IB24); assay: SPR equilibrium binding to immobilized PfHsp70-1NBD; conditions: ligand PfHsp70-1NBD immobilized, 25°C
Method: The steady-state equilibrium binding kinetics for the inhibitors on either PfHsp70-1 or PfHop were investigated using BioNavis Navi 420A ILVES multi-parametric surface plasmon resonance (MP-SPR) system (BioNavis, Finland) following a previously described method ([Lebepe et al., 2020]; [Chakafana et al., 2021]). Briefly, filter-sterilized de-gassed PBS (4.3 mM Na2HPO4, 1.4 mM KH2PO4, 137 mM NaCl, 3 mM KCl, 0.005% (v/v) Tween 20, and 20 mM EDTA; pH 7.4) was used as running buffer for the assay. The ligand (0.1 μg/ml of PfHsp70-1/PfHop) was immobilized onto a carboxymethyl dextran (CMD 3-D) gold sensor chip through amine coupling. […] Similarly, as controls nucleotides (5 µM ATP/ADP) and a known P. falciparum Hsp70 inhibitor, (−)-Epigallocatechin-3-gallate (EGCG; [Zininga et al., 2017b]) were similarly injected at varying final concentrations (0, 1.25, 2.5, 5, 10, 20 nM) over the chip surface. […] The data generated were analyzed using Data Viewer (BioNavis, Finland) after subtraction of baseline (signals generated on the chip surface without protein immobilized and buffer without inhibitor). The resultant sensorgrams were analyzed to determine the equilibrium binding affinities using Trace Drawer software version 1.8 (Ridgeview Instruments; Sweden).

PfHop [1] = biological target: T1, PfHop (Plasmodium falciparum, UniProt Q8ILC1); assay: SPR equilibrium binding to immobilized PfHop; conditions: SPR, ligand PfHop immobilized, 25°C; read-out: KD
T1 construct: His; made in house; host or cells: E. coli XL1 Blue
T1 sequence (Q8ILC1 1-564): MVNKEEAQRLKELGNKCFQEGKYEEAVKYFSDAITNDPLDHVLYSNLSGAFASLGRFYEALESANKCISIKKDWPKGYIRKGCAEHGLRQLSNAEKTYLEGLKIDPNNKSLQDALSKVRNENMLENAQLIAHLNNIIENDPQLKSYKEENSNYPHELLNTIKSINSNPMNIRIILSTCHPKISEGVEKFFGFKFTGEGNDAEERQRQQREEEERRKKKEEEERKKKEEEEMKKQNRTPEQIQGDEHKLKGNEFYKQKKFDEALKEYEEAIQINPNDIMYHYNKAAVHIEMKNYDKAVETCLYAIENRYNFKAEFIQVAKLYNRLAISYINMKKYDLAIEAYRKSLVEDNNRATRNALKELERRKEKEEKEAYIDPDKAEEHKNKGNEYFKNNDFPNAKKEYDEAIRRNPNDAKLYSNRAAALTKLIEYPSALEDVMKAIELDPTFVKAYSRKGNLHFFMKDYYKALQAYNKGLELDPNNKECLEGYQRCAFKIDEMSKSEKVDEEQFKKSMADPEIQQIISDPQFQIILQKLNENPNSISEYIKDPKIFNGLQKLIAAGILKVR
Method: The steady-state equilibrium binding kinetics for the inhibitors on either PfHsp70-1 or PfHop were investigated using BioNavis Navi 420A ILVES multi-parametric surface plasmon resonance (MP-SPR) system (BioNavis, Finland) following a previously described method ([Lebepe et al., 2020]; [Chakafana et al., 2021]). Briefly, filter-sterilized de-gassed PBS (4.3 mM Na2HPO4, 1.4 mM KH2PO4, 137 mM NaCl, 3 mM KCl, 0.005% (v/v) Tween 20, and 20 mM EDTA; pH 7.4) was used as running buffer for the assay. The ligand (0.1 μg/ml of PfHsp70-1/PfHop) was immobilized onto a carboxymethyl dextran (CMD 3-D) gold sensor chip through amine coupling. PES was injected (flow rate of 50 μl/min) as analyte at varying final concentrations (0, 1.25, 2.5, 5, 10, 20 nM). […] Steady-state equilibrium was achieved after allowing the interaction to occur for 8 min at 25°C, followed by dissociation for 4 min at 25°C, respectively. The data generated were analyzed using Data Viewer (BioNavis, Finland) after subtraction of baseline (signals generated on the chip surface without protein immobilized and buffer without inhibitor). The resultant sensorgrams were analyzed to determine the equilibrium binding affinities using Trace Drawer software version 1.8 (Ridgeview Instruments; Sweden).

PfHop [2] = biological target: T1, PfHop; assay: Intrinsic fluorescence analysis of PfHop tertiary structure; conditions: PfHop 4 µM with 20 µM PES, excitation 295 nm; apo state 339 nm
Method: The effect of PES on the tertiary structural conformation of recombinant PfHsp70-1 and PfHop proteins relative to the nucleotide-dependent conformations were assessed by monitoring intrinsic fluorescence as previously described ([Zininga et al., 2016]; [Lebepe et al., 2020]). […] The assay was repeated in the presence of 20 µM PES. Fluorescence emission spectra were monitored at 300–400 nm after initial excitation at 295 nm. The spectra data collected from seven spectral scans were averaged and processed taking into account the baseline (effect of buffer in the absence of protein).

PfHsp70-1 = assay: MDH heat-induced aggregation suppression (holdase chaperone activity); assay type: biochemical, Plasmodium falciparum; conditions: MDH aggregation at 51°C, 360 nm; PES 5-100 nM
Method: In the current study, we investigated the effect of PES on the holdase chaperone activity of PfHsp70-1. The assay was initiated by adding 1,25 µM MDH and 0,75 µM PfHsp70-1 to the assay buffer (50 mM Tris-HCl, 100 mM NaCl; pH 7.4) and heated to 51°C. Aggregation of MDH was monitored as a function of light scattering at 360 nm over 30 min at 51°C in a SpectraMax M3 (Molecular Devices, United States) microplate spectrometer. The assay was repeated at varying final concentrations (5, 15, 25, 50, 100 nM) of PES. The chaperone function of PfHsp70-1 under various experimental conditions was compared to the activity of the chaperone recorded in the absence of nucleotide. Statistical analysis was conducted using a student t-test and a p < 0.05 represented functionally significant variation.

[3] = biological target: PfHsp70-1-PfHop association (Plasmodium falciparum, UniProt Q8IB24+Q8ILC1); assay: ELISA for the direct association of PfHsp70-1 and PfHop; assay type: biochemical
Method: An enzyme-linked immunosorbent assay (ELISA) was used to validate the effect of PES on the direct association of PfHsp70-1 and PfHop following a previously described protocol ([Mabate et al., 2018]). Briefly, ligand (5 μg/ml of PfHsp70-1) suspended in 5 mM sodium bicarbonate (NaHCO3) at pH 9.5 was noncovalently immobilized onto a 96 well plate overnight at 4 C. BSA (5 μg/ml) was used as a ligand for the negative control. The wells were washed with 150 µl TBST which contains (Tris-buffered saline- Tween (TBST; 20 mM Tris HCl, pH 7.5, 500 mM NaCl supplemented with 0.1% Tween 20) prior to blocking with 5% fat-free milk in TBST and incubated at 25 C for 1 h. The wells were washed using TBST for a total of 10 min. Varying concentrations (0–1,000 nM) of analyte PfHop were added to the wells and incubated for 2 h at 25 °C. To remove the unbound analyte, the plate was washed with 150 µl TBST three times before the addition of rabbit-raised α-PfHop antibody (1: 4,000) followed by incubation at 25°C for 1 h. Subsequently, the wells were washed with 150 µl TBST three times before the addition of 100 µl secondary HRP conjugated goat-raised α-rabbit antibody (1: 4,000) and incubated for 45 min at 25 °C. The substrate, 3,3’5,5’ –tetramethylbenzidine (TMB) (Bio Scientific, United States) was added into the wells and incubated for 2 min at 25 C. Color development was monitored by recording absorbance readings at 370 nm at 5 min time intervals for 30 min using a SpectraMax M3 Microplate reader (Molecular Devices, United States). To determine the effect of the inhibitor, the assay was conducted in the presence of 25 µM) of PES. […] Furthermore, the assay was repeated interchanging the ligand and analyte to validate data reproducibility. The generated data were analyzed taking into account the background signal generated by BSA which served as the control protein. The absorbance values obtained at the highest concentration of each analyte were averaged to represent maximum (100%) binding. Titration curves were then generated using GraphPad Prism 9.3.1 (GraphPad Software, United States). The relative binding affinities of PES under each experimental setting were normalized relative to the affinity estimated for assay conducted in the absence of nucleotide at the highest concentration of PfHop. Statistical analysis was conducted to establish significant differences at p < 0.05 using a student t-test.

[4] = system: Asexual P. falciparum strain 3D7 parasites; assay: Parasite growth inhibition assay (SYBR Gold); assay type: cell-based; conditions: Plasmodium falciparum; P. falciparum 3D7, asexual blood stage, 96 h, n = 3; read-out: IC50 parasite growth
Method: Parasite growth without any drug present, which allowed the parasites to proliferate unrestricted, was used as negative drug control. SYBRTM Gold DNA stain (Invitrogen, ThermoFisher Scientific Inc., Germany) was used to measure the proliferation of the parasites compared to the controls as previously described ([[…] al., 2004]). Fluorescence was measured using a TECAN Spark® multimode microplate reader (Tecan Trading AG, Switzerland) and the data were analyzed using SigmaPlot, version 12 (Systat Software Inc., IL, United States).

Chain of PfHsp70-1-PfHop association (Q8IB24 entry or part of it, one chain of several): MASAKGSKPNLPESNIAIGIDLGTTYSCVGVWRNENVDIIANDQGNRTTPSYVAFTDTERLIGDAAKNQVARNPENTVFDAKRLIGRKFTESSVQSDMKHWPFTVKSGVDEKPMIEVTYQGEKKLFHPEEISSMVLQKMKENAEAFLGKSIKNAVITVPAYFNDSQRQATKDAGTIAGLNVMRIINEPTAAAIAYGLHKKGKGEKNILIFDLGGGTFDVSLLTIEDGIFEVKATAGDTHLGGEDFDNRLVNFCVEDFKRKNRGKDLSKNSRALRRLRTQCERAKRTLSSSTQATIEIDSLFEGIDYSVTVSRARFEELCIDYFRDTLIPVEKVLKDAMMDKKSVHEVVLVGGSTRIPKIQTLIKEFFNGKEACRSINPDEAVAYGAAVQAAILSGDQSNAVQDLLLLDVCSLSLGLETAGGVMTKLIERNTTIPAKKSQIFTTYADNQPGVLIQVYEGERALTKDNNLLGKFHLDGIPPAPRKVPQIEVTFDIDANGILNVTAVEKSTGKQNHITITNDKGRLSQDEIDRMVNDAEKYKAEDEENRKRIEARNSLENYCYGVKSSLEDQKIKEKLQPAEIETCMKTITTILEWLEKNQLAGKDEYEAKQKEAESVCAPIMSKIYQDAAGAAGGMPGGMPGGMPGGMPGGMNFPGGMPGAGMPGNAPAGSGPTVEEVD
Chain of PfHsp70-1NBD (Q8IB24 entry or part of it): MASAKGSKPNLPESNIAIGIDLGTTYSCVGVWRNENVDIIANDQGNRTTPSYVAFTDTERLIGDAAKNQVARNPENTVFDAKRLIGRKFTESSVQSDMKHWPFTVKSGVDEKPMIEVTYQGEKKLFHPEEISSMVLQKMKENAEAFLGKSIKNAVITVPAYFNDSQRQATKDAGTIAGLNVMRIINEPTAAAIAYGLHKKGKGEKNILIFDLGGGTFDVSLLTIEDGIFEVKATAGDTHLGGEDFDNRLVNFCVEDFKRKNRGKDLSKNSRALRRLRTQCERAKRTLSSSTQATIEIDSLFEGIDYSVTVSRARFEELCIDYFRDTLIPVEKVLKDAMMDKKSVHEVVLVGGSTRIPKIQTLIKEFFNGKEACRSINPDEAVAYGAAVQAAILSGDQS

NS(=O)(=O)C#Cc1ccccc1 [PES, 2-Phenylthynesulfonamide]
Kd (PfHsp70-1NBD): 7390 ± 90 nM | Kd (PfHop [1]): 707 ± 70 nM | Fluorescence emission peak (PfHop [2]): 340 nm | Effect on holdase chaperone activity of PfHsp70-1 (PfHsp70-1): inhibited the chaperone activity of PfHsp70-1 in a concentration-dependent fashion | Effect on association of PfHsp70-1 and PfHop ([3]; 25 µM nucleotide or inhibitor): abrogated the interaction of PfHsp70-1 and PfHop | IC50 ([3]; ligand PfHop, analyte PfHsp70-1): 38.1 ± 3.6 nM | IC50 ([3]; ligand PfHsp70-1, analyte PfHop): 32.4 ± 2.1 nM | IC50 [4]: 38700 ± 700 nM
